Data reported in the supplement of paper PMC4862054.

Legend:
Details in all cases: incubation time: 72 h
[1] = tested on: CAL-51; test: normalised viability (% of control), CellTiter-Blue; higher = more viable cells (about 100 = DMSO control)
Outline: (§1)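 Each entry is normalised viability at a single listed concentration within a series. It comes from breast cancer cell lines incubated 72 h with compound in 384-well plates, then measured with CellTiter-Blue fluorescence at 560/590 nm. Every plate was normalised between vehicle (100) and a positive kill control (0).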

[2] = tested on: HCC1937; test: as above
Outline: as §1

[3] = tested on: HCC1143; test: as above
Outline: as §1

[4] = tested on: MDA-MB-436; test: as above
Outline: as §1

[5] = tested on: MFM-223; test: as above
Outline: as §1

[6] = tested on: DU-4475; test: as above
Outline: as §1

[7] = tested on: SK-BR-3; test: as above
Outline: as §1

[8] = tested on: MDA-MB-453; test: as above
Outline: as §1

[9] = tested on: CAL-120; test: as above
Outline: as §1

[10] = tested on: BT-549; test: as above
Outline: as §1

[11] = tested on: HDQ-P1; test: as above
Outline: as §1

[12] = tested on: CAL-51; test: drug sensitivity score (DSS), CellTiter-Blue viability (DSS (AUC-based score)); higher = stronger viability inhibition; extreme values may be limits of the assay
Experimental: (§2)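 DSRT with the CellTiter-Blue (resazurin reduction) viability readout, fluorescence 560/590 nm, 72 h incubation. Plates were normalised to DMSO and benzethonium chloride controls. DSS is computed from the area under the fitted dose-response curve (5 or 9 concentrations).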

[13] = tested on: CAL-148; test: as above
Experimental: as §2

[14] = tested on: HCC1937; test: as above
Experimental: as §2

[15] = tested on: CAL-85-1; test: as above
Experimental: as §2

[16] = tested on: MDA-MB-231; test: as above
Experimental: as §2

[17] = tested on: BT-474; test: as above
Experimental: as §2

[18] = tested on: MDA-MB-468; test: as above
Experimental: as §2

[19] = tested on: HCC1143; test: as above
Experimental: as §2

[20] = tested on: MDA-MB-436; test: as above
Experimental: as §2

[21] = tested on: MFM-223; test: as above
Experimental: as §2

[22] = tested on: DU-4475; test: as above
Experimental: as §2

[23] = tested on: SK-BR-3; test: as above
Experimental: as §2

[24] = tested on: Hs578T; test: as above
Experimental: as §2

[25] = tested on: MDA-MB-453; test: as above
Experimental: as §2

[26] = tested on: CAL-120; test: as above
Experimental: as §2

[27] = tested on: BT-549; test: as above
Experimental: as §2

[28] = tested on: HDQ-P1; test: as above
Experimental: as §2

What does the source list for `Cn1cncc1[C@@](N)(c1ccc(Cl)cc1)c1ccc2c(c1)c(-c1cccc(Cl)c1)cc(=O)n2C` [Tipifarnib]?
normalised viability ([1]; 100 nM): 63.4%; normalised viability ([2]; 10000 nM): 32.3%; normalised viability ([3]; 10000 nM): 59.7%; normalised viability ([4]; 10000 nM): 54.9%; normalised viability ([5]; 10000 nM): 29.7%; normalised viability ([6]; 100 nM): 54.9%; normalised viability ([7]; 10000 nM): 23.8%; normalised viability ([8]; 100 nM): 73.6%; normalised viability ([9]; 10000 nM): 32.7%; normalised viability ([10]; 10000 nM): 30.1%; normalised viability ([11]; 100 nM): 70.7%; drug sensitivity score [12]: 9.74; drug sensitivity score [13]: 18.8; drug sensitivity score [14]: 15.3; drug sensitivity score [15]: 6.87; drug sensitivity score [16]: 11.7; drug sensitivity score [17]: 5.35; drug sensitivity score [18]: 3.09; drug sensitivity score [19]: 14.7; drug sensitivity score [20]: 0; drug sensitivity score [21]: 7.2; drug sensitivity score [22]: 18.5; drug sensitivity score [23]: 12.6; drug sensitivity score [24]: 5.75; drug sensitivity score [25]: 10.5; drug sensitivity score [26]: 12.4; drug sensitivity score [27]: 5.66; drug sensitivity score [28]: 13.3

What does the source list for `CCCCCCCCc1ccc(CCC(N)(CO)CO)cc1` [Fingolimod]?
normalised viability ([1]; 100 nM): 111%; normalised viability ([2]; 10000 nM): 2.06%; normalised viability ([3]; 10000 nM): 69.5%; normalised viability ([4]; 10000 nM): 4.17%; normalised viability ([5]; 10000 nM): 9.42%; normalised viability ([6]; 100 nM): 107%; normalised viability ([7]; 10000 nM): 3.17%; normalised viability ([8]; 100 nM): 97.7%; normalised viability ([9]; 10000 nM): 2.23%; normalised viability ([10]; 10000 nM): 8.23%; normalised viability ([11]; 100 nM): 111%; drug sensitivity score [12]: 0; drug sensitivity score [13]: 0; drug sensitivity score [14]: 5.93; drug sensitivity score [15]: 2.9; drug sensitivity score [16]: 7.64; drug sensitivity score [17]: 4.46; drug sensitivity score [18]: 5.1; drug sensitivity score [19]: 0; drug sensitivity score [20]: 8.37; drug sensitivity score [21]: 3.93; drug sensitivity score [22]: 0; drug sensitivity score [23]: 4.64; drug sensitivity score [24]: 5.16; drug sensitivity score [25]: 3.02; drug sensitivity score [26]: 5.43; drug sensitivity score [27]: 6.99; drug sensitivity score [28]: 3.07

What does the source list for `CN1CCN(CCOc2cc(OC3CCOCC3)c3c(Nc4c(Cl)ccc5c4OCO5)ncnc3c2)CC1` [Saracatinib]?
normalised viability ([1]; 100 nM): 99.1%; normalised viability ([2]; 10000 nM): 116%; normalised viability ([3]; 10000 nM): 46.2%; normalised viability ([4]; 10000 nM): 72.1%; normalised viability ([5]; 10000 nM): 77.1%; normalised viability ([6]; 100 nM): 98.9%; normalised viability ([7]; 10000 nM): 39.7%; normalised viability ([8]; 100 nM): 105%; normalised viability ([9]; 10000 nM): 61.1%; normalised viability ([10]; 10000 nM): 47.4%; normalised viability ([11]; 100 nM): 111%; drug sensitivity score [12]: 8.13; drug sensitivity score [13]: 1.9; drug sensitivity score [14]: 0; drug sensitivity score [15]: 9.72; drug sensitivity score [16]: 7.77; drug sensitivity score [17]: 5.44; drug sensitivity score [18]: 4.05; drug sensitivity score [19]: 0; drug sensitivity score [20]: 0.375; drug sensitivity score [21]: 0; drug sensitivity score [22]: 0; drug sensitivity score [23]: 3.37; drug sensitivity score [24]: 0; drug sensitivity score [25]: 4.51; drug sensitivity score [26]: 4.64; drug sensitivity score [27]: 5; drug sensitivity score [28]: 11.5

`COc1ccc(-c2ccc3c(N4CCOC[C@@H]4C)nc(N4CCOC[C@@H]4C)nc3n2)cc1CO` [AZD8055] was tested. Which normalised viability ([1]; 100 nM) did it give?
The normalised viability was 27.3%.

And the normalised viability ([2]; 10000 nM)?
Its normalised viability is 40.3%.

What about the normalised viability ([3]; 10000 nM) of the same molecule?
The normalised viability was 28.4%.

What about the normalised viability ([4]; 10000 nM) of the same molecule?
The normalised viability was 40.1%.

And the normalised viability ([5]; 10000 nM)?
Its normalised viability is 14.6%.

What about the normalised viability ([6]; 100 nM) of the same molecule?
The normalised viability was 58.6%.

What about the normalised viability ([7]; 10000 nM) of the same molecule?
Its normalised viability is 10.4%.

What about the normalised viability ([8]; 100 nM) of the same molecule?
The normalised viability was 21.1%.

And the normalised viability ([9]; 10000 nM)?
Its normalised viability is 9.25%.

What about the normalised viability ([10]; 10000 nM) of the same molecule?
The normalised viability was 14.4%.

What about the normalised viability ([11]; 100 nM) of the same molecule?
Its normalised viability is 45.6%.

And the drug sensitivity score [12]?
The drug sensitivity score was 28.8.

And the drug sensitivity score [13]?
The drug sensitivity score was 28.

And the drug sensitivity score [14]?
Its drug sensitivity score is 21.7.

And the drug sensitivity score [15]?
The drug sensitivity score was 23.6.

And the drug sensitivity score [16]?
Its drug sensitivity score is 21.4.

What about the drug sensitivity score [17] of the same molecule?
Its drug sensitivity score is 20.

What about the drug sensitivity score [18] of the same molecule?
The drug sensitivity score was 16.8.

And the drug sensitivity score [19]?
Its drug sensitivity score is 18.1.

What about the drug sensitivity score [20] of the same molecule?
The drug sensitivity score was 15.6.

What about the drug sensitivity score [21] of the same molecule?
Its drug sensitivity score is 27.6.

And the drug sensitivity score [22]?
The drug sensitivity score was 20.9.

What about the drug sensitivity score [23] of the same molecule?
The drug sensitivity score was 28.6.

What about the drug sensitivity score [24] of the same molecule?
The drug sensitivity score was 23.6.

What about the drug sensitivity score [25] of the same molecule?
The drug sensitivity score was 29.

What about the drug sensitivity score [26] of the same molecule?
The drug sensitivity score was 25.

What about the drug sensitivity score [27] of the same molecule?
Its drug sensitivity score is 22.4.

And the drug sensitivity score [28]?
The drug sensitivity score was 23.9.

What does the source list for `Cn1c(=O)n(-c2ccc(C(C)(C)C#N)cc2)c2c3cc(-c4cnc5ccccc5c4)ccc3ncc21` [NVP-BEZ235]?
normalised viability ([1]; 10 nM): 54.6%; normalised viability ([2]; 1000 nM): 45.5%; normalised viability ([3]; 1000 nM): 30.1%; normalised viability ([4]; 1000 nM): 63.2%; normalised viability ([5]; 1000 nM): 24.1%; normalised viability ([6]; 10 nM): 107%; normalised viability ([7]; 1000 nM): 15.6%; normalised viability ([8]; 10 nM): 49.9%; normalised viability ([9]; 1000 nM): 14.4%; normalised viability ([10]; 1000 nM): 18.2%; normalised viability ([11]; 10 nM): 69%; drug sensitivity score [12]: 20.7; drug sensitivity score [13]: 19.5; drug sensitivity score [14]: 14.5; drug sensitivity score [15]: 16.2; drug sensitivity score [16]: 17; drug sensitivity score [17]: 12; drug sensitivity score [18]: 13.3; drug sensitivity score [19]: 15.4; drug sensitivity score [20]: 5.52; drug sensitivity score [21]: 19.7; drug sensitivity score [22]: 13.5; drug sensitivity score [23]: 15.9; drug sensitivity score [24]: 18.4; drug sensitivity score [25]: 21.6; drug sensitivity score [26]: 20.4; drug sensitivity score [27]: 18.5; drug sensitivity score [28]: 16.2

For `CN(C)C[C@@H]1CCn2cc(c3ccccc32)C2=C(C(=O)NC2=O)c2cn(c3ccccc23)CCO1` [Ruboxistaurin], which normalised viability ([1]; 100 nM) is on record?
Its normalised viability is 88.8%.

And the normalised viability ([2]; 10000 nM)?
The normalised viability was 35.1%.

And the normalised viability ([3]; 10000 nM)?
Its normalised viability is 94%.

What about the normalised viability ([4]; 10000 nM) of the same molecule?
The normalised viability was 29.2%.

And the normalised viability ([5]; 10000 nM)?
Its normalised viability is 30.1%.

And the normalised viability ([6]; 100 nM)?
The normalised viability was 95.6%.

What about the normalised viability ([7]; 10000 nM) of the same molecule?
The normalised viability was 4%.

What about the normalised viability ([8]; 100 nM) of the same molecule?
Its normalised viability is 93%.

And the normalised viability ([9]; 10000 nM)?
Its normalised viability is 38.9%.

What about the normalised viability ([10]; 10000 nM) of the same molecule?
Its normalised viability is 43.7%.

And the normalised viability ([11]; 100 nM)?
The normalised viability was 83.1%.

And the drug sensitivity score [12]?
Its drug sensitivity score is 4.59.

What about the drug sensitivity score [13] of the same molecule?
The drug sensitivity score was 3.06.

And the drug sensitivity score [14]?
The drug sensitivity score was 6.14.

What about the drug sensitivity score [15] of the same molecule?
Its drug sensitivity score is 0.

And the drug sensitivity score [16]?
The drug sensitivity score was 4.1.

What about the drug sensitivity score [17] of the same molecule?
Its drug sensitivity score is 6.23.

What about the drug sensitivity score [18] of the same molecule?
The drug sensitivity score was 6.34.

What about the drug sensitivity score [19] of the same molecule?
Its drug sensitivity score is 0.

What about the drug sensitivity score [20] of the same molecule?
Its drug sensitivity score is 10.7.

What about the drug sensitivity score [21] of the same molecule?
Its drug sensitivity score is 6.81.

What about the drug sensitivity score [22] of the same molecule?
The drug sensitivity score was 6.32.

And the drug sensitivity score [23]?
Its drug sensitivity score is 6.94.

And the drug sensitivity score [24]?
The drug sensitivity score was 1.19.

And the drug sensitivity score [25]?
The drug sensitivity score was 4.14.

And the drug sensitivity score [26]?
Its drug sensitivity score is 1.65.

What about the drug sensitivity score [27] of the same molecule?
Its drug sensitivity score is 3.74.

What about the drug sensitivity score [28] of the same molecule?
Its drug sensitivity score is 3.47.
